The term EC50 denotes the midpoint of the concentration-response curve.

This note sets out measurements from patent publication US20250163119A1, “COMPOUNDS FOR THE TREATMENT OF DIABETES OR OBESITY” (Eli Lilly and Company, priority 2023, published 2025).

The assay deals with T1, human CRHR1 (Homo sapiens, UniProt P34998).
T1 construct: expressed in transfected cells
T1 sequence (P34998 24-415): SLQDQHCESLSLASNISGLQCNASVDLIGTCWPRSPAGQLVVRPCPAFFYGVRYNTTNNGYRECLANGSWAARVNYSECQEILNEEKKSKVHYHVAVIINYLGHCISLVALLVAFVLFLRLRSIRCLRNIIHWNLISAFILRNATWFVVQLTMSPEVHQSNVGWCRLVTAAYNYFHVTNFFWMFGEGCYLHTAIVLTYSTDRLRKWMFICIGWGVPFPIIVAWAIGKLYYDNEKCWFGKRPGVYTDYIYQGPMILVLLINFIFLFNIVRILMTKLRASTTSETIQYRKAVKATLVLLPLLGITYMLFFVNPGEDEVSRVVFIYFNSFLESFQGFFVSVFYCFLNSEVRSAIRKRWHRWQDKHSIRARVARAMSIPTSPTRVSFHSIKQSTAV
In words: Human CRHR1 cAMP assay (HTRF) in HEK293 cells stably expressing human CRHR1. As to conditions: HEK293 cells overexpressing human CRHR1; relative EC50, maximum 66 nM human UCN1; mean ± SE; read-out: hCRHR1 cAMP EC50 (pM, ± SE). The class given is cell-based. Put shortly: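 Stably expressing HEK293 clones received peptide concentration series in phosphodiesterase-inhibited buffer (0.25 mM IBMX, pH 7.4). After receptor-specific incubation (CRHR1 1 h at 37° C; CRHR2 30 min at room temperature), cells were lysed with HTRF cAMP reagents for 60 min and the 665/620 nm ratio recorded.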

*1 amine or outer side, *2 acyl side, *3 side chain or, on linkers, in order; H or OH if unused. Where a SMILES comes first, the peptide text is derived from it. Side-chain parts run from the residue outwards. [ ]: non-standard residue; d: D form. The star is where a group is joined. C20 diacid = O=C(O)CCCCCCCCCCCCCCCCCCC(=O)*; γGlu = O=C(O)[C@H](CCC(=O)[*:2])N[*:1]; εLys = N[C@@H](CCCCN[*:1])C(=O)[*:2]; NMeI = CC[C@H](C)[C@H](NC)C(=O)O; αMeL = CC(C)C[C@](C)(N)C(=O)O; AEEA = NCCOCCOCC(=O)O; Aib = CC(C)(N)C(=O)O A value given as a limit tells only on which side of the number the result lay.

With `CC[C@H](C)[C@H](NC(C)=O)C(=O)N[C@H](C(=O)N[C@H](C(=O)N[C@@H](CO)C(=O)N[C@@](C)(CC(C)C)C(=O)N[C@@H](CC(=O)O)C(=O)N[C@@H](C(=O)N1CCC[C@H]1C(=O)N[C@H](C(=O)NCC(=O)N[C@@](C)(CC(C)C)C(=O)N[C@@H](CC(C)C)C(=O)N[C@@H](CCC(N)=O)C(=O)N[C@H](C(=O)N[C@@H](CCCCN)C(=O)N[C@@H](CC(C)C)C(=O)N[C@@H](CCC(=O)O)C(=O)N[C@@H](CCC(N)=O)C(=O)N[C@@H](CCC(=O)O)C(=O)N[C@@H](CCCNC(=N)N)C(=O)N[C@@H](C)C(=O)N[C@@H](CCC(=O)O)C(=O)N[C@@H](CCCCN)C(=O)N[C@@H](C)C(=O)N[C@@H](CCCNC(=N)N)C(=O)N[C@@H](CCC(N)=O)C(=O)N[C@@H](CCC(N)=O)C(=O)N[C@@H](C)C(=O)N[C@@H](CCCCNC(=O)COCCOCCNC(=O)COCCOCCNC(=O)CC[C@H](NC(=O)CCCCCCCCCCCCCCCCCCC(=O)O)C(=O)O)C(=O)N[C@@H](CCC(=O)O)C(=O)N[C@@H](CC(N)=O)C(=O)N[C@H](C(=O)N[C@@H](CCC(=O)O)C(=O)N[C@H](C(=O)N[C@@H](CC(C)C)C(=O)N[C@@H](C)C(=O)N[C@@H](CCC(N)=O)C(=O)N[C@H](C(N)=O)C(C)C)[C@@H](C)CC)[C@@H](C)O)[C@@H](C)CC)[C@@H](C)O)C(C)C)[C@@H](C)O)C(C)C` [SEQ ID NO: 29, Ac-IVTS αMeL D (D-Val) PTG αMeL LQIKLEQERAEKARQ QAK((2-[2-(2-Amino-ethoxy)-ethoxy]-acetyl)2-γE-CO-(CH2)18-CO2H)ENTEILAQV-NH2] (Ac-IVTS[αMeL]D[dV]PTG[αMeL]LQIKLEQERAEKARQQAK([AEEA-AEEA-γGlu-C20 diacid])ENTEILAQV-NH2), the EC50 was over 1e+07 pM.
With `CC[C@H](C)[C@H](NC(C)=O)C(=O)N[C@H](C(=O)N[C@H](C(=O)N[C@@H](CO)C(=O)N[C@@](C)(CC(C)C)C(=O)N[C@@H](CC(=O)O)C(=O)N[C@@H](C(=O)N1CCC[C@H]1C(=O)N[C@H](C(=O)NC(C)(C)C(=O)N[C@@](C)(CC(C)C)C(=O)N[C@@H](CC(C)C)C(=O)N[C@@H](CCC(N)=O)C(=O)N[C@H](C(=O)N[C@@H](CCCCN)C(=O)N[C@@H](CC(C)C)C(=O)N[C@@H](CCC(=O)O)C(=O)N[C@@H](CCC(N)=O)C(=O)N[C@@H](CCC(=O)O)C(=O)N[C@@H](CCCNC(=N)N)C(=O)N[C@@H](C)C(=O)N[C@@H](CCC(=O)O)C(=O)N[C@@H](CCCCN)C(=O)N[C@@H](C)C(=O)N[C@@H](CCCNC(=N)N)C(=O)N[C@@H](CCC(N)=O)C(=O)N[C@@H](CCC(N)=O)C(=O)N[C@@H](C)C(=O)N[C@@H](CCCCNC(=O)COCCOCCNC(=O)COCCOCCNC(=O)CC[C@H](NC(=O)CCCCCCCCCCCCCCCCCCC(=O)O)C(=O)O)C(=O)N[C@@H](CCC(=O)O)C(=O)N[C@@H](CC(N)=O)C(=O)N[C@H](C(=O)N[C@@H](CCC(=O)O)C(=O)N[C@H](C(=O)N[C@@H](CC(C)C)C(=O)N[C@@H](C)C(=O)N[C@@H](CCC(N)=O)C(=O)N[C@H](C(N)=O)C(C)C)[C@@H](C)CC)[C@@H](C)O)[C@@H](C)CC)[C@@H](C)O)C(C)C)[C@@H](C)O)C(C)C` [SEQ ID NO: 41, Ac-IVTS αMeL D (D-Val) PT Aib αMeL LQIKLEQERAEKARQQAK((2-[2-(2-Amino-ethoxy)-ethoxy]-acetyl)2-γE-CO-(CH2)18-CO2H)ENTEILAQV-NH2] (Ac-IVTS[αMeL]D[dV]PT[Aib][αMeL]LQIKLEQERAEKARQQAK([AEEA-AEEA-γGlu-C20 diacid])ENTEILAQV-NH2), the EC50 is 3.7e+06 pM.
For `CC[C@H](C)[C@H](NC)C(=O)N[C@H](C(=O)N[C@H](C(=O)N[C@@H](CO)C(=O)N[C@@H](CC(C)C)C(=O)N[C@@H](CC(=O)O)C(=O)N[C@H](C(=O)N1CCC[C@H]1C(=O)N[C@H](C(=O)NCC(=O)N[C@@](C)(CC(C)C)C(=O)N[C@@H](CC(C)C)C(=O)N[C@@H](CCC(N)=O)C(=O)N[C@@H](CCCCN)C(=O)N[C@@H](CC(C)C)C(=O)N[C@H](C(=O)N[C@@H](CCC(=O)O)C(=O)N[C@@H](CCC(N)=O)C(=O)N[C@@H](CCC(=O)O)C(=O)N[C@@H](CCCCN)C(=O)N[C@@H](CCC(N)=O)C(=O)N[C@@H](CCC(=O)O)C(=O)N[C@@H](CCCCN)C(=O)N[C@@H](CCC(=O)O)C(=O)N[C@@H](CCCCN)C(=O)N[C@@H](CCC(N)=O)C(=O)N[C@@H](CCC(N)=O)C(=O)N[C@@H](C)C(=O)N[C@@H](CCCCNC(=O)COCCOCCNC(=O)COCCOCCNC(=O)CC[C@H](NC(=O)CCCCCCCCCCCCCCCCCCC(=O)O)C(=O)O)C(=O)N[C@@H](CCC(=O)O)C(=O)N[C@@H](CC(N)=O)C(=O)N[C@H](C(=O)N[C@@H](CCC(=O)O)C(=O)N[C@H](C(=O)N[C@@H](CC(C)C)C(=O)N[C@@H](C)C(=O)N[C@@H](CCC(N)=O)C(=O)N[C@H](C(N)=O)C(C)C)[C@@H](C)CC)[C@@H](C)O)[C@@H](C)CC)[C@@H](C)CC)C(C)C)[C@@H](C)O)C(C)C` [SEQ ID NO: 49, (NMeI) VTSLDVPIG αMeL LQKLIEQEKQEKEKQQAK((2-[2-(2-Amino-ethoxy)-ethoxy]-acetyl)2-γE-CO-(CH2)18-CO2H)ENTEILAQV-NH2] (H-[NMeI]VTSLDVPIG[αMeL]LQKLIEQEKQEKEKQQAK([AEEA-AEEA-γGlu-C20 diacid])ENTEILAQV-NH2), the EC50 is over 1e+07 pM.
Take `CC[C@H](C)[C@H](NC)C(=O)N[C@H](C(=O)N[C@H](C(=O)N[C@@H](CO)C(=O)N[C@@H](CC(C)C)C(=O)N[C@@H](CC(=O)O)C(=O)N[C@H](C(=O)N1CCC[C@H]1C(=O)N[C@H](C(=O)NCC(=O)N[C@@](C)(CC(C)C)C(=O)N[C@@H](CC(C)C)C(=O)N[C@@H](CCC(N)=O)C(=O)N[C@@H](CCCCN)C(=O)N[C@@H](CC(C)C)C(=O)N[C@@H](CC(C)C)C(=O)N[C@@H](CCC(=O)O)C(=O)N[C@@H](CCC(N)=O)C(=O)N[C@@H](CCC(=O)O)C(=O)N[C@@H](CCCNC(=N)N)C(=O)N[C@@H](C)C(=O)N[C@@H](CCC(=O)O)C(=O)N[C@@H](CCCCN)C(=O)N[C@@H](C)C(=O)N[C@@H](CCCNC(=N)N)C(=O)N[C@@H](CCC(N)=O)C(=O)N[C@@H](CCC(N)=O)C(=O)N[C@@H](C)C(=O)N[C@@H](CCCCNC(=O)COCCOCCNC(=O)COCCOCCNC(=O)CC[C@H](NC(=O)CCCCCCCCCCCCCCCCCCC(=O)O)C(=O)O)C(=O)N[C@@H](CCC(=O)O)C(=O)N[C@@H](C)C(=O)N[C@@H](C)C(=O)N[C@@H](CCC(=O)O)C(=O)N[C@H](C(=O)N[C@@H](CC(C)C)C(=O)N[C@@H](C)C(=O)N[C@@H](CCC(N)=O)C(=O)N[C@H](C(N)=O)C(C)C)[C@@H](C)CC)[C@@H](C)CC)C(C)C)[C@@H](C)O)C(C)C` [SEQ ID NO: 50, (NMeI) VTSLDVPIG αMeL LQKLLEQERAEKARQQAK((2-[2-(2-Amino-ethoxy)-ethoxy]-acetyl)2-γE-CO-(CH2)18-CO2H)EAAEILAQV-NH2] (H-[NMeI]VTSLDVPIG[αMeL]LQKLLEQERAEKARQQAK([AEEA-AEEA-γGlu-C20 diacid])EAAEILAQV-NH2): the EC50 was over 1e+07 pM.
To “Ac-GSPSIVTS[αMeL]DVPT[Aib][αMeL]LQKLLEQERAEKARQQAK([γGlu-AEEA-εLys-C20 diacid])EAAEILAQV-NH2 [SEQ ID NO: 2, Ac-GSPSIVTS αMeL DVPT Aib αMeL LQKLLEQERAEKARQQAK(γE-(2-[2-(2-Amino-ethoxy)-ethoxy]-acetyl)-ϵK-CO-(CH2)18-CO2H)EAAEILAQV-NH2]” belongs over 1e+07 pM.
To “Ac-PPPIVTS[αMeL]DVPT[Aib][αMeL]LQKLLEQERAEKARQQAK([γGlu-AEEA-εLys-C20 diacid])EAAEILAQV-NH2 [SEQ ID NO: 48, Ac-PPPIVTS αMeL DVPT Aib αMeL LQKLLEQERAEKARQQAK(γE-(2-[2-(2-Amino-ethoxy)-ethoxy]-acetyl)-ϵK-CO-(CH2)18-CO2H)EAAEILAQV-NH2]” belongs over 1e+07 pM.
